Laboratory results: patent publication US20240287052A1, “NOVEL OXAZOLE DERIVATIVE AND PHARMACEUTICAL COMPOSITION FOR PREVENTING OR TREATING ALLERGIC DISEASES COMPRISING THE SAME” (AZCURIS CO., LTD., priority 2021, published 2024)
Like-named read-outs stand apart in the source and are kept apart here.

Biological target: T1, IL33 and ST2 binding (Homo sapiens, UniProt O95760)
T1 sequence (O95760 112-270 limits assumed): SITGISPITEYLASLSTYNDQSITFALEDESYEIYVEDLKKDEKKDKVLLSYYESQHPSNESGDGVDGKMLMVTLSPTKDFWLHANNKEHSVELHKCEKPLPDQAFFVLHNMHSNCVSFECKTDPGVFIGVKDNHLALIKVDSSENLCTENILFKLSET
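Note: plate ELISA with coated Flag-tagged human IL-33 and His-tagged human ST2, bound ST2 detected by anti-His HRP and TMB absorbance at 450 nm, 2 h compound incubation.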

inhibition (30 µM) [%] | inhibition (100 µM) [%] | Compound
35 | 32 | CCOC(=O)c1nc(-c2cccc(F)c2)oc1-c1ccccc1 [Compound 65, Ethyl 2-(3-fluorophenyl)-5-phenyloxazole-4-carboxylate]
-14 | -21 | CCOC(=O)c1nc(-c2ccc(C(F)(F)F)cc2)oc1-c1cccc(N(C(C)=O)C(C)=O)c1 [Compound 108, Ethyl 5-(3-(N-acetylacetamido)phenyl)-2-(4-(trifluoromethyl)phenyl)oxazole-4-carboxylate]
44 | 105 | CCOC(=O)c1nc(-c2ccc(OC(F)(F)F)cc2)oc1-c1ccccc1 [Compound 58, Ethyl 5-phenyl-2-(4-(trifluoromethoxy)phenyl)oxazole-4-carboxylate]
4 | 13 | O=C(NCCN1CCCC1)c1nc(-c2ccc(C(F)(F)F)cc2)oc1-c1ccccc1[N+](=O)[O-] [Compound 139, 5-(2-Nitrophenyl)-N-(2-(pyrrolidin-1-yl)ethyl)-2-(4-(trifluoromethyl)phenyl)oxazole-4-carboxamide]
40 | 93 | CCOC(=O)c1nc(-c2cccc(OC(F)(F)F)c2)oc1-c1ccccc1 [Compound 56, Ethyl 5-phenyl-2-(3-(trifluoromethoxy)phenyl)oxazole-4-carboxylate]
10 | 13 | O=C(Nc1ccc(OCc2ccccc2)cc1)c1nc(-c2ccc(C(F)(F)F)cc2)oc1-c1ccccc1[N+](=O)[O-] [Compound 165, N-(4-(Benzyloxy)phenyl)-5-(2-nitrophenyl)-2-(4-(trifluoromethyl)phenyl)oxazole-4-carboxamide]
23 | 49 | CN1CCN(CCNC(=O)c2nc(-c3ccc(OC(F)(F)F)cc3)oc2-c2ccccc2[N+](=O)[O-])CC1 [Compound 206, N-(2-(4-methylpiperazin-1-yl)ethyl)-5-(2-nitrophenyl)-2-(4-(trifluoromethoxy)phenyl)oxazole-4-carboxamide]
-1 | 41 | O=C(c1nc(-c2ccc(C(F)(F)F)cc2)oc1-c1ccccc1[N+](=O)[O-])N1CCOCC1 [Compound 156, Morpholino(5-(2-nitrophenyl)-2-(4-(trifluoromethyl)phenyl)oxazol-4-yl)methanone]
-10 | 1 | CN(C)CCNC(=O)c1nc(-c2ccc(-c3ccccc3)cc2)oc1-c1ccccc1[N+](=O)[O-] [Compound 255, 2-([1,1′-Biphenyl]-4-yl)-N-(2-(dimethylamino)ethyl)-5-(2-nitrophenyl)oxazole-4-carboxamide]
9 | 15 | CCOC(=O)c1nc(-c2ccc(F)cc2)oc1-c1ccccc1 [Compound 67, Ethyl 2-(4-fluorophenyl)-5-phenyloxazole-4-carboxylate]
-15 | -9 | CCOC(=O)c1nc(-c2ccc(C(F)(F)F)cc2)oc1-c1ccc(NC(C)=O)cc1 [Compound 107, Ethyl 5-(4-acetamidophenyl)-2-(4-(trifluoromethyl)phenyl)oxazole-4-carboxylate]
3 | 36 | CN(C)CCNC(=O)c1nc(-c2cc(F)cc(F)c2)oc1-c1ccccc1 [Compound 235, 2-(3,5-Difluorophenyl)-N-(2-(dimethylamino)ethyl)-5-phenyloxazole-4-carboxamide]
-6 | -21 | CN(C)CCNC(=O)c1nc(-c2ccc(C#N)cc2)oc1-c1ccccc1[N+](=O)[O-] [Compound 251, 2-(4-Cyanophenyl)-N-(2-(dimethylamino)ethyl)-5-(2-nitrophenyl)oxazole-4-carboxamide]
26 | 57 | CCOC(=O)c1nc(-c2ccc(OC)cc2)oc1-c1ccccc1[N+](=O)[O-] [Compound 63, Ethyl 2-(4-methoxyphenyl)-5-(2-nitrophenyl)oxazole-4-carboxylate]
-22 | 39 | CN(C)CCNC(=O)c1nc(-c2cccc(C(F)(F)F)c2)oc1-c1ccccc1[N+](=O)[O-] [Compound 123, N-(2-(Dimethylamino)ethyl)-5-(2-nitrophenyl)-2-(3-(trifluoromethyl)phenyl)oxazole-4-carboxamide]
-34 | -16 | CN(C)CCNC(=O)c1nc(-c2cc(F)cc(F)c2)oc1-c1ccccc1[N+](=O)[O-] [Compound 237, 2-(3,5-Difluorophenyl)-N-(2-(dimethylamino)ethyl)-5-(2-nitrophenyl)oxazole-4-carboxamide]
2 | -1 | O=C(NCC1CCCO1)c1nc(-c2ccc(C(F)(F)F)cc2)oc1-c1ccccc1[N+](=O)[O-] (centres unmarked) [Compound 159, 5-(2-Nitrophenyl)-N-((tetrahydrofuran-2-yl)methyl)-2-(4-(trifluoromethyl)phenyl)oxazole-4-carboxamide]

inhibition (30 µM) [%] | inhibition (100 µM) [%] | Compound
-25 | -8 | CN(C)CCNC(=O)c1nc(-c2ccc(F)cc2)oc1-c1ccccc1[N+](=O)[O-] [Compound 226, N-(2-(Dimethylamino)ethyl)-2-(4-fluorophenyl)-5-(2-nitrophenyl)oxazole-4-carboxamide]
13 | 19 | CN1CCN(CCNC(=O)c2nc(-c3ccc(F)c(F)c3)oc2-c2ccccc2[N+](=O)[O-])CC1 [Compound 234, 2-(3,4-Difluorophenyl)-N-(2-(4-methylpiperazin-1-yl)ethyl)-5-(2-nitrophenyl)oxazole-4-carboxamide]
-9 | 3 | CN1CCN(CCNC(=O)c2nc(-c3ccc(F)c(F)c3)oc2-c2ccccc2)CC1 [Compound 232, 2-(3,4-Difluorophenyl)-N-(2-(4-methylpiperazin-1-yl)ethyl)-5-phenyloxazole-4-carboxamide]
1 | 4 | CC(=O)c1ccc(NC(=O)c2nc(-c3ccc(C(F)(F)F)cc3)oc2-c2ccccc2[N+](=O)[O-])cc1 [Compound 147, N-(4-Acetylphenyl)-5-(2-nitrophenyl)-2-(4-(trifluoromethyl)phenyl)oxazole-4-carboxamide]
43 | 50 | CS(=O)(=O)NCCNC(=O)c1nc(-c2ccc(C(F)(F)F)cc2)oc1-c1ccccc1[N+](=O)[O-] [Compound 288, N-(2-(Methylsulfonamido)ethyl)-5-(2-nitrophenyl)-2-(4-(trifluoromethyl)phenyl)oxazole-4-carboxamide]
-20 | 11 | CN1CCN(CCNC(=O)c2nc(-c3ccc(-c4ccccc4)cc3)oc2-c2ccccc2)CC1 [Compound 254, 2-([1,1′-Biphenyl]-4-yl)-N-(2-(4-methylpiperazin-1-yl)ethyl)-5-phenyloxazole-4-carboxamide]
-18 | 0 | CN1CCN(CCNC(=O)c2nc(-c3cccc(C(F)(F)F)c3)oc2-c2ccccc2)CC1 [Compound 122, N-(2-(4-Methylpiperazin-1-yl)ethyl)-5-phenyl-2-(3-(trifluoromethyl)phenyl)oxazole-4-carboxamide]
19 | 33 | CCOC(=O)c1nc(-c2cccc(C(F)(F)F)c2)oc1-c1ccccc1 [Compound 29, Ethyl 5-phenyl-2-(3-(trifluoromethyl)phenyl)oxazole-4-carboxylate]
14 | 9 | CN1CCN(CCNC(=O)c2nc(-c3ccc(C#N)cc3)oc2-c2ccccc2)CC1 [Compound 250, 2-(4-Cyanophenyl)-N-(2-(4-methylpiperazin-1-yl)ethyl)-5-phenyloxazole-4-carboxamide]
22 | 42 | CCOC(=O)c1nc(-c2ccc3ccccc3c2)oc1-c1ccccc1 [Compound 83, Ethyl 2-(naphthalen-2-yl)-5-phenyloxazole-4-carboxylate]
108 | 115 | CCOC(=O)c1nc(-c2ccc(C(F)(F)F)cc2)oc1-c1cccc(SC)c1 [Compound 40, Ethyl 5-(3-(methylthio)phenyl)-2-(4-(trifluoromethyl)phenyl)oxazole-4-carboxylate]
-18 | 7 | CN(C)CCCN1CCN(C(=O)c2nc(-c3ccc(C(F)(F)F)cc3)oc2-c2ccccc2[N+](=O)[O-])CC1 [Compound 150, (4-(3-(Dimethylamino)propyl)piperazin-1-yl)(5-(2-nitrophenyl)-2-(4-(trifluoromethyl)phenyl)oxazol-4-yl)methanone]
-6 | 7 | CN1CCN(CCNC(=O)c2nc(-c3ccc(F)cc3)oc2-c2ccccc2)CC1 [Compound 225, 2-(4-Fluorophenyl)-N-(2-(4-methylpiperazin-1-yl)ethyl)-5-phenyloxazole-4-carboxamide]
-22 | -17 | CN1CCN(CCNC(=O)c2coc(-c3ccc(C(F)(F)F)cc3)n2)CC1 [Compound 115, N-(2-(4-methylpiperazin-1-yl)ethyl)-2-(4-(trifluoromethyl)phenyl)oxazole-4-carboxamide]
-16 | -28 | CN(C)CCNC(=O)c1nc(-c2ccc([N+](=O)[O-])cc2)oc1-c1ccccc1 [Compound 275, N-(2-(Dimethylamino)ethyl)-2-(4-nitrophenyl)-5-phenyloxazole-4-carboxamide]
29 | 49 | CCOC(=O)c1nc(-c2ccc(F)c(F)c2)oc1-c1ccccc1[N+](=O)[O-] [Compound 71, Ethyl 2-(3,4-difluorophenyl)-5-(2-nitrophenyl)oxazole-4-carboxylate]
3 | 8 | CN(C)CCNC(=O)c1nc(-c2ccc(N(C)C)cc2)oc1-c1ccccc1 [Compound 261, N-(2-(Dimethylamino)ethyl)-2-(4-(dimethylamino)phenyl)-5-phenyloxazole-4-carboxamide]
